Tests used:
Assay in all cases: KINOMEscan competition binding
Settings in all cases: compound 10.0 µM
[1] = biological target: MARK2 (human) (UniProt Q7KZI7)
[2] = biological target: AURKB (human) (UniProt Q96GD4)
[3] = biological target: MAPK13 (human) (UniProt O15264)
[4] = biological target: MAPK12 (human) (UniProt P53778)
[5] = biological target: ERBB2 (human) (UniProt P04626)
[6] = biological target: PAK7 (human) (UniProt Q9P286)
[7] = biological target: STK3 (human) (UniProt Q13188)
[8] = biological target: RPS6KA5 KD1 (human) (UniProt O75582)
Sequence of RPS6KA5 KD1 (human) (O75582 whole entry, looked up): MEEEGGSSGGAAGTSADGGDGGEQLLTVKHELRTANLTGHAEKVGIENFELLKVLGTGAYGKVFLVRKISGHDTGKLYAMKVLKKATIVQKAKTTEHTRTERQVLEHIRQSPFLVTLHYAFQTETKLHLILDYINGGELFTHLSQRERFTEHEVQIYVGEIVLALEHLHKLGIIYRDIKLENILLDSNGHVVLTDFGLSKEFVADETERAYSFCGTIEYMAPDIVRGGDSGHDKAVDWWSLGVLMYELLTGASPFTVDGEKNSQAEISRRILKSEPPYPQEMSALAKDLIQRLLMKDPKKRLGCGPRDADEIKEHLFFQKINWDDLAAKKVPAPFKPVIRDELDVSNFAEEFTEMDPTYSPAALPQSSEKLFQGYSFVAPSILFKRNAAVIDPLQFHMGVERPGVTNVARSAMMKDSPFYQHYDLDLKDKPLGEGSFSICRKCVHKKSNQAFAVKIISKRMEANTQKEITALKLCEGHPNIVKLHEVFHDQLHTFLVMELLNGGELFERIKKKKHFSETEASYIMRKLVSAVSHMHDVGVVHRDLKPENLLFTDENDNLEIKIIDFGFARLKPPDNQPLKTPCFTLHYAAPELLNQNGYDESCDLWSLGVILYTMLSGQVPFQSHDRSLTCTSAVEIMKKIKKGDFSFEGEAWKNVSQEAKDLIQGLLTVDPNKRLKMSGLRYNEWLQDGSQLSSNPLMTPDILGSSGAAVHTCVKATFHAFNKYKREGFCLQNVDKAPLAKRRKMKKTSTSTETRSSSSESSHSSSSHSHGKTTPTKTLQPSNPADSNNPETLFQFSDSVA

[9] = biological target: TLK2 (human) (UniProt Q86UE8)
[10] = biological target: STK35 (human) (UniProt Q8TDR2)
[11] = biological target: CLK2 (human) (UniProt P49760)
[12] = biological target: LIMK2 (human) (UniProt P53671)
Sequence of LIMK2 (human) (P53671 whole entry, looked up): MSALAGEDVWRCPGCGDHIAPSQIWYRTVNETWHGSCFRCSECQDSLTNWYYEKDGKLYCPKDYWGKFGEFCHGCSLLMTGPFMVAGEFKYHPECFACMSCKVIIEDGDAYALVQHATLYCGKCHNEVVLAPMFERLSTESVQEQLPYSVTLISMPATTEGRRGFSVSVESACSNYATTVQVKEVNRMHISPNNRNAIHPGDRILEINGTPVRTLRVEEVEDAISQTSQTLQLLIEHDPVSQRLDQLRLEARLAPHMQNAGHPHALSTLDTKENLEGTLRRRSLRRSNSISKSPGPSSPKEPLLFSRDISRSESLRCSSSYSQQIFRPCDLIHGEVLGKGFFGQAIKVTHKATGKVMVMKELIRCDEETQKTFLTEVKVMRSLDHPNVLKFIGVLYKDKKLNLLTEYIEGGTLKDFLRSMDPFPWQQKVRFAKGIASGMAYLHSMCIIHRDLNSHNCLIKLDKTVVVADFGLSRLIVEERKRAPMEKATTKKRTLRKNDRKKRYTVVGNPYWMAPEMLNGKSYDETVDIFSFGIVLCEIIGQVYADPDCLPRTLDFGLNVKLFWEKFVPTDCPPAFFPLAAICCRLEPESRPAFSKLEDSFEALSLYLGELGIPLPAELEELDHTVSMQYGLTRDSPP

[13] = biological target: TIE1 (human) (UniProt P35590)
Sequence of TIE1 (human) (P35590 whole entry, looked up): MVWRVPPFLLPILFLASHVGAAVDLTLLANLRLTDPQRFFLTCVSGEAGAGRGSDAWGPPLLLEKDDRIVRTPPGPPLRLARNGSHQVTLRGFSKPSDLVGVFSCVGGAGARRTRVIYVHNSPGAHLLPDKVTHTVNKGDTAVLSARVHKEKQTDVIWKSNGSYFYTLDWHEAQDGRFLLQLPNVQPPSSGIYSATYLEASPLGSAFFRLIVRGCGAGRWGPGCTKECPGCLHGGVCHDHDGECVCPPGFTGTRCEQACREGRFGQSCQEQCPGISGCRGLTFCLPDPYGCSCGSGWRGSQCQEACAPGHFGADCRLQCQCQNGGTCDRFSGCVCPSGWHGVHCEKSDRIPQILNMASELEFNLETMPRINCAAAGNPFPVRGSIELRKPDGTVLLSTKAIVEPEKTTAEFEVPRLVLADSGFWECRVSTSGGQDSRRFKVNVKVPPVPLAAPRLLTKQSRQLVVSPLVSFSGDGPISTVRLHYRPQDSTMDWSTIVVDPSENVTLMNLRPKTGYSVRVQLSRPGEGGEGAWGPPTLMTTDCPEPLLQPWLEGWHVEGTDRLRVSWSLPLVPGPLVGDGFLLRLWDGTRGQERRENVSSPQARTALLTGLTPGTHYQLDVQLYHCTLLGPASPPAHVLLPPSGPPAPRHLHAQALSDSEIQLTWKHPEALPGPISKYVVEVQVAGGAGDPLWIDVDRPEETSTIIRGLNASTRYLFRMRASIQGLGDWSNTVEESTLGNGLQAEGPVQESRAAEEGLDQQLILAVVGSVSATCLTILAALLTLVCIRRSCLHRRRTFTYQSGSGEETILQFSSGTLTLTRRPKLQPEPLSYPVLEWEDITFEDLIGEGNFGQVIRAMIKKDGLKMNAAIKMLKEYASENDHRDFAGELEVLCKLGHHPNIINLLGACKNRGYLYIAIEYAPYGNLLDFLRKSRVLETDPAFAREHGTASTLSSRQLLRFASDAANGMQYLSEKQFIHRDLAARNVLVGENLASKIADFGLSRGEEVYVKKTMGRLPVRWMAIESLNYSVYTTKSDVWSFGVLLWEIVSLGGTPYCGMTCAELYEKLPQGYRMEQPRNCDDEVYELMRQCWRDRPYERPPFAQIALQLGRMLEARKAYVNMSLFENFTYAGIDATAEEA

[14] = biological target: TYK2 JH2 pseudokinase (human) (UniProt P29597)
[15] = biological target: KIT (human) (UniProt P10721)
[16] = biological target: SRMS (human) (UniProt Q9H3Y6)
[17] = biological target: PDPK1 (human) (UniProt O15530)
[18] = biological target: ACVR1 (human) (UniProt Q04771)
[19] = biological target: MAPK14 (human) (UniProt Q16539)
[20] = biological target: ADCK3 (human) (UniProt Q8NI60)
[21] = biological target: TGFBR1 (human) (UniProt P36897)
[22] = biological target: PIK3CB (human) (UniProt P42338)
[23] = biological target: RIPK2 (human) (UniProt O43353)
[24] = biological target: GAK (human) (UniProt O14976)
[25] = biological target: RIOK3 (human) (UniProt O14730)
[26] = biological target: HCK (human) (UniProt P08631)
Sequence of HCK (human) (P08631 whole entry, looked up): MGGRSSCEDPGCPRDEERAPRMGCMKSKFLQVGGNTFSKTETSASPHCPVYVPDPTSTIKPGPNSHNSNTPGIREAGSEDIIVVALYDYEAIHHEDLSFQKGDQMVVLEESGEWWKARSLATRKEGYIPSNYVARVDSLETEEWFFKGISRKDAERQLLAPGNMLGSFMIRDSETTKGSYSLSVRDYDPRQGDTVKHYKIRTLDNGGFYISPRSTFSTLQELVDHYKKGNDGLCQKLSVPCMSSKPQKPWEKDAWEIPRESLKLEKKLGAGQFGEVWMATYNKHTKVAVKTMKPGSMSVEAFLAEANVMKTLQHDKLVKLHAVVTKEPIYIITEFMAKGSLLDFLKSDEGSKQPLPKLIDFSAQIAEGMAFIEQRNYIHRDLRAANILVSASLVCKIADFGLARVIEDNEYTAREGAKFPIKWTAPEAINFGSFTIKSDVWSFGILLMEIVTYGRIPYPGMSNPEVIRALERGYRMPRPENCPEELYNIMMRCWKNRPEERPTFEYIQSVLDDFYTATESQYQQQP

[27] = biological target: TYRO3 (human) (UniProt Q06418)
[28] = biological target: MINK1 (human) (UniProt Q8N4C8)
[29] = biological target: STK10 (human) (UniProt O94804)
Sequence of STK10 (human) (O94804 whole entry, looked up): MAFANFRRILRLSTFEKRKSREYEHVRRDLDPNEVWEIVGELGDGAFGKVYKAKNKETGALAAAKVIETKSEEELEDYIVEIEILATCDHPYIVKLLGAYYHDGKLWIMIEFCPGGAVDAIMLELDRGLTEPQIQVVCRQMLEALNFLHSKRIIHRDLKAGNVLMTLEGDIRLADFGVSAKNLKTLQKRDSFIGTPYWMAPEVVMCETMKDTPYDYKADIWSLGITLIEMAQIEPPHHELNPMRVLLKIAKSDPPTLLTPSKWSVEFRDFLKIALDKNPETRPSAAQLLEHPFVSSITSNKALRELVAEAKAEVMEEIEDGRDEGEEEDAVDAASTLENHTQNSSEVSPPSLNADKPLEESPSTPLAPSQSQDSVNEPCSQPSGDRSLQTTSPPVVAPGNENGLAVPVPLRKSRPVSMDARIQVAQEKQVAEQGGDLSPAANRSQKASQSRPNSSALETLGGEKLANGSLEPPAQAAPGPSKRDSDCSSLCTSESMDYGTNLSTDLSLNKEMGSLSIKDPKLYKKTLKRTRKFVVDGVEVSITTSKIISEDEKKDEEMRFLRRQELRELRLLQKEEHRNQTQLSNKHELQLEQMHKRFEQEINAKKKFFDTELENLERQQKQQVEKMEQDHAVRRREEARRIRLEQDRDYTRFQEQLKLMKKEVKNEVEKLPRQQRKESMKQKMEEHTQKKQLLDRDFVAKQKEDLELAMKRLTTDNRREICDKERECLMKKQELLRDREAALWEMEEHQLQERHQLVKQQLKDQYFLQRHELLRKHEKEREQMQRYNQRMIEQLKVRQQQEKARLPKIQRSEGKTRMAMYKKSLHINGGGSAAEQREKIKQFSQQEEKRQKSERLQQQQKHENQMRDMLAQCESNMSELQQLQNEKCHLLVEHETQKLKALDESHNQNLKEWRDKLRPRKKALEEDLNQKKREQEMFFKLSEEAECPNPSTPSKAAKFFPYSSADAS

[30] = biological target: MAP3K7 (human) (UniProt O43318)
Sequence of MAP3K7 (human) (O43318 whole entry, looked up): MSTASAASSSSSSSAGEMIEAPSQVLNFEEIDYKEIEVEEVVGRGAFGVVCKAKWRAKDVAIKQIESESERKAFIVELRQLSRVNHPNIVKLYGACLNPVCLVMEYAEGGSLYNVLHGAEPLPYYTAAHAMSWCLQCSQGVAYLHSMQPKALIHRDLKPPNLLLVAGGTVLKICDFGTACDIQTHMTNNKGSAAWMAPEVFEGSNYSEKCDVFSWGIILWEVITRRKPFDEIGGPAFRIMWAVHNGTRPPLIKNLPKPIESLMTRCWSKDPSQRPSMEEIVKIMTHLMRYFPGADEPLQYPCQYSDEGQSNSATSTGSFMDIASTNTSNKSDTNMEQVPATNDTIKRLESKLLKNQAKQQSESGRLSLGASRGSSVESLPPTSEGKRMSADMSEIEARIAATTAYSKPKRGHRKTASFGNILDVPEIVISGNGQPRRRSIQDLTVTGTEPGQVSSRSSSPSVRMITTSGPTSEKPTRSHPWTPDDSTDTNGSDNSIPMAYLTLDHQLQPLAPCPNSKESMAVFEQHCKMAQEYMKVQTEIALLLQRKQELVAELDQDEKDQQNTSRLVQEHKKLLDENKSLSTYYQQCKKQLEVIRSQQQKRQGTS

[31] = tested on: MET (human), P08581 [Y1235D]
[32] = biological target: PRPF4B (human) (UniProt Q13523)
[33] = biological target: HIPK4 (human) (UniProt Q8NE63)
[34] = biological target: IRAK1 (human) (UniProt P51617)
[35] = biological target: DYRK1A (human) (UniProt Q13627)
[36] = biological target: OXSR1 (human) (UniProt O95747)
[37] = tested on: KIT (human), P10721 [L576P]

Sequence of MAPK13 (human) (O15264 whole entry, looked up): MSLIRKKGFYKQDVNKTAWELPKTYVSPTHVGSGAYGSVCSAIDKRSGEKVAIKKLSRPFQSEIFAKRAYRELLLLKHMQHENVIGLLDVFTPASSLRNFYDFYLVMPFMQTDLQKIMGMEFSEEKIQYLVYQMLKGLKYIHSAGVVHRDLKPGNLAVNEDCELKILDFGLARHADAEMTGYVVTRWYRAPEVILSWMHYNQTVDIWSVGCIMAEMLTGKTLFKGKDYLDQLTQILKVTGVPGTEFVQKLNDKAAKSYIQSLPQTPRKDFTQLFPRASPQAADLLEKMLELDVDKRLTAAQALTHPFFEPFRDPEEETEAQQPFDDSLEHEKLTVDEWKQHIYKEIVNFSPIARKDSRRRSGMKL

kinase still bound, per cent of control [1] [%]	kinase still bound, per cent of control [2] [%]	kinase still bound, per cent of control [5] [%]	kinase still bound, per cent of control [6] [%]	kinase still bound, per cent of control [7] [%]	kinase still bound, per cent of control [8] [%]	kinase still bound, per cent of control [9] [%]	kinase still bound, per cent of control [12] [%]	kinase still bound, per cent of control [15] [%]	kinase still bound, per cent of control [16] [%]	kinase still bound, per cent of control [17] [%]	kinase still bound, per cent of control [18] [%]	kinase still bound, per cent of control [19] [%]	kinase still bound, per cent of control [20] [%]	kinase still bound, per cent of control [21] [%]	kinase still bound, per cent of control [23] [%]	kinase still bound, per cent of control [24] [%]	kinase still bound, per cent of control [25] [%]	kinase still bound, per cent of control [26] [%]	kinase still bound, per cent of control [27] [%]	Compound	also measured
33	0.7	100	100	0.2	100	100	100	20	100	100	100	100	100	100	100	2.5	2.9	11	29	CNC(=O)c1ccc(Nc2cc(Nc3ccccc3S(=O)(=O)C(C)C)c3cc[nH]c3n2)nc1	kinase still bound, per cent of control [3]: 100%; kinase still bound, per cent of control [4]: 100%; kinase still bound, per cent of control [10]: 12%; kinase still bound, per cent of control [11]: 4.7%; kinase still bound, per cent of control [13]: 0.2%; kinase still bound, per cent of control [14]: 0.95%; kinase still bound, per cent of control [22]: 100%; kinase still bound, per cent of control [28]: 100%; kinase still bound, per cent of control [29]: 0%; kinase still bound, per cent of control [30]: 0.35%
100	100	16	100	100	100	100	100	0.3	100	100	100	100	100	100	100	100	100	11	100	C=CC(=O)Nc1ccc(CN(C(=O)Nc2c(Cl)c(OC)cc(OC)c2Cl)c2cc(Nc3ccc(N4CCN(C)CC4)cc3)ncn2)cc1	kinase still bound, per cent of control [3]: 4.9%; kinase still bound, per cent of control [4]: 100%; kinase still bound, per cent of control [10]: 100%; kinase still bound, per cent of control [11]: 100%; kinase still bound, per cent of control [13]: 0%; kinase still bound, per cent of control [14]: 100%; kinase still bound, per cent of control [22]: 100%; kinase still bound, per cent of control [28]: 100%; kinase still bound, per cent of control [29]: 0.1%; kinase still bound, per cent of control [30]: 100%
100	100	100	100	100	100	100	100	100	100	100	100	100	100	100	100	100	100	100	100	CCN(CC)CCCCNc1ncc2cc(-c3cc(OC)cc(OC)c3)c(NC(=O)NC(C)(C)C)nc2n1	kinase still bound, per cent of control [4]: 100%; kinase still bound, per cent of control [11]: 100%; kinase still bound, per cent of control [13]: 12%; kinase still bound, per cent of control [29]: 100%
100	100	100	100	100	100	100	100	100	100	100	100	100	100	100	100	100	100	100	100	CS(=O)(=O)N1CCN(Cc2cc3nc(-c4cccc5[nH]ncc45)nc(N4CCOCC4)c3s2)CC1	kinase still bound, per cent of control [31]: 100%; kinase still bound, per cent of control [3]: 100%; kinase still bound, per cent of control [4]: 100%; kinase still bound, per cent of control [10]: 100%; kinase still bound, per cent of control [32]: 100%; kinase still bound, per cent of control [33]: 100%; kinase still bound, per cent of control [14]: 100%; kinase still bound, per cent of control [34]: 100%; kinase still bound, per cent of control [35]: 100%; kinase still bound, per cent of control [22]: 0.1%; kinase still bound, per cent of control [36]: 100%; kinase still bound, per cent of control [28]: 100%; kinase still bound, per cent of control [29]: 100%; kinase still bound, per cent of control [37]: 100%; kinase still bound, per cent of control [30]: 100%

Compound	kinase still bound, per cent of control [1] [%]	kinase still bound, per cent of control [2] [%]	kinase still bound, per cent of control [5] [%]	kinase still bound, per cent of control [6] [%]	kinase still bound, per cent of control [7] [%]	kinase still bound, per cent of control [8] [%]	kinase still bound, per cent of control [9] [%]	kinase still bound, per cent of control [12] [%]	kinase still bound, per cent of control [15] [%]	kinase still bound, per cent of control [16] [%]	kinase still bound, per cent of control [17] [%]	kinase still bound, per cent of control [18] [%]	kinase still bound, per cent of control [19] [%]	kinase still bound, per cent of control [20] [%]	kinase still bound, per cent of control [21] [%]	kinase still bound, per cent of control [23] [%]	kinase still bound, per cent of control [24] [%]	kinase still bound, per cent of control [25] [%]	kinase still bound, per cent of control [26] [%]	kinase still bound, per cent of control [27] [%]	also measured
Cc1n[nH]c2ccc(-c3cncc(OC[C@@H](N)Cc4c[nH]c5ccccc45)c3)cc12	13	100	100	16	0.35	11	100	100	100	100	100	100	100	100	100	100	8.1	2.7	100	100	kinase still bound, per cent of control [3]: 4.4%; kinase still bound, per cent of control [10]: 100%; kinase still bound, per cent of control [11]: 0.05%; kinase still bound, per cent of control [13]: 31%; kinase still bound, per cent of control [14]: 100%; kinase still bound, per cent of control [22]: 100%; kinase still bound, per cent of control [28]: 6.2%; kinase still bound, per cent of control [29]: 100%; kinase still bound, per cent of control [30]: 3.2%

Source: the kinase profiling compilation of Christmann-Franck et al. (2016)
